One experiment relates to Cdk6. Nature of the experiment: Western blot: Cdk6 level in KMS-11 cells. In kind it is cell-based, human. As to conditions: KF58333 4.0, 20 and 100 nmol/l, 40 hours, FIG. 1. Here is the method: (§1) KMS-11 cells derived from human multiple myeloma [In Vitro Cell. Dev. Biol., 25, 723 (1989)], which were diluted to 10,000 cells/ml with RPMI 1640 medium containing 10% fetal bovine serum (hereinafter referred to as “culturing medium”), were put in plastic culture flasks (125 cm^2, Nunc) in 30 ml portions. KMS-11 cells are reported to be the cells in which a large amount of FGFR3 is expressed as a result of translocation between immunoglobulin gene on 14q32 and FGFR3 gene on 4p16.3 [Blood, 90, 4062 (1997)]. […]
(§2) To the thus recovered cells was added a cooled lysis buffer (50 mmol/l HEPES NaOH, pH 7.4, 250 mmol/l sodium chloride, 1 mmol/l ethylenediamine tetraacetate, 1% Nonidet P-40, 1 mmol/l dithiothreitol, 1 mmol/l phenylmethylsulfonyl fluoride, 5 μg/ml leupeptin), and the mixture was allowed to stand at 4° C. for 30 minutes for cytolysis, followed by centrifugation at 20000 G for 10 minutes. The concentration of proteins in the supernatant thus obtained was measured, and the samples were adjusted so that the amount of proteins per each lane was the same. […]
(§3) The separated protein samples were each transferred to a polyvinylidene difluoride membrane (Millipore). […] The band of each protein was detected by FluorImager (Molecular Dynamics) after reaction with ECF reagent (Molecular Dynamics).

The test system of experiment [1] is KMS-11 cells. In words: Growth inhibition of KMS-11 cells (XTT). Particulars: Homo sapiens, 72 hours, calculated from the graph of FIG. 2, read-out: concentration to inhibit cell growth by 50% (GI50 value). Type of experiment: cell-based. Here is the method: KMS-11 cells diluted to 2×10^5 cells/ml with the culturing medium were pipetted into a 96-well microplate (Nunc) in an amount of 50 μl ([…]) per well. To each well was added 50 μl of a solution prepared by diluting a 10 mmol/l solution of KF58333 in DMSO to 600 nmol/l with the culturing medium and further serially diluting the resulting solution threefold with the culturing medium so as to make the final concentrations of KF58333 of 300, 100, 33.3, 11.1, 3.70 and 1.23 nmol/l, respectively. […] Thereafter, incubation was carried out in a 5% CO2 incubator at 37° C. for 72 hours, and the number of living cells was measured in the following manner. […] Then, the absorbance at 450 nm and 655 nm was measured using a microplate spectrophotometer (Model 550, BIO-RAD). A value (difference in absorbance) was calculated by subtracting the absorbance at 655 nm from that at 450 nm for each well. Since the number of living cells is proportional to the difference in absorbance, the rate (%) of the value of difference in absorbance obtained for cells to which various concentrations of KF58333 were added to that obtained for control cells to which KF58333 was not added when the latter value was designated as 100% was calculated as the rate of the number of living cells to that of control, and the cell growth inhibitory activity of KF58333 was measured.

The test system of another experiment is FGFR3. Nature of the experiment: Western blot: intracellular disappearance of FGFR3 in KMS-11 cells. Type of experiment: cell-based, human. As to conditions: KF58333 4.0, 20 and 100 nmol/l, 40 hours, FIG. 1. Here is the method:
as §1, §2, §3
Background: A western blot detects proteins with antibodies after separation by electrophoresis.

A further experiment concerns Raf-1. Nature of the experiment: Western blot: Raf-1 level in KMS-11 cells. In kind it is cell-based, human. Particulars: KF58333 4.0, 20 and 100 nmol/l, 40 hours, FIG. 1. As for the experimental part: as §1, §2, §3
Experiment [2] concerns KMS-11 cells. Nature of the experiment: In vivo antitumor effect in KMS-11 cell-transplanted mice. Particulars: KMS-11 subcutaneous tumor in scid mice, 25 mg/kg intravenously once a day for 5 consecutive days, measured up to day 24, FIG. 3. As for the experimental part: In vivo antitumor effect of a compound having an inhibitory action on Hsp90 was examined using a human tumor model prepared by transplanting KMS-11 cells to immunodeficient mice as a model of a disease associated with immunoglobulin gene translocations.
KMS-11 cells were cultured in a 5% CO2 incubator at 37° C. using the culturing medium for propagation. One day before transplantation, 0.3 mg/mouse of anti-asialo GM1 antibody was intraperitoneally administered to 10 […] Fox C.B-17/Icr-scidJcl mice (CLEA JAPAN). One day after the administration of the antibody, the cultured KMS-11 cells (1×10^7 cells/mouse) were subcutaneously transplanted to the mice. Fourteen days after the transplantation, the longer diameter and shorter diameter of the tumor subcutaneously grown were measured with slide calipers, and the tumor volume was calculated according to the following equation: Tumor volume V(mm^3)={longer diameter (mm)×[shorter diameter(mm)]^2}/2
At the same time, the body weight of each mouse was measured, and the mice were divided into two groups of 5 mice each so that the tumor volume and the body weight are randomized. The day was defined as day 0 of the administration test, and drug administration was started in the following manner. […]

In a further experiment the test system is Erk2. Nature of the experiment: Western blot: Erk2 level in KMS-11 cells. In kind it is cell-based, human. As to conditions: KF58333 4.0, 20 and 100 nmol/l, 40 hours, FIG. 1, Erk2 is not an Hsp90 client protein. Here is the method:
as §1, §2, §3

Another experiment concerns multiple myeloma cells. Particulars: mice to which multiple myeloma cells were transplanted; Blood, 100, 392 (2002); cited from earlier work.

Regarding `CC1CC2OC2\C=C/C=C/C(=N\OCCN2CCCC2=O)Cc2c(Cl)c(O)cc(O)c2C(=O)O1` (stereo not shown) [KF58333], the “intracellular amount of Cdk6 (Western blot)” value with Cdk6 is on record as “disappeared”. Moreover, the GI50 in the experiment on KMS-11 cells [1] is 19.8 nM. For the same compound, the “intracellular amount of FGFR3 (Western blot)” value in the experiment on FGFR3 is “disappeared”. Besides, the “intracellular amount of Raf-1 (Western blot)” value in the experiment on Raf-1 is given as “disappeared”. The “tumor growth (volume ratio V/V0)” value in the experiment with KMS-11 cells [2] was “apparent suppression of tumor growth”. The “intracellular amount of Erk2 (Western blot)” value with Erk2 is given as “no change”.
`C=CCNC1=C2C[C@@H](C)C[C@H](OC)[C@H](O)[C@@H](C)/C=C(\C)[C@H](OC(N)=O)[C@@H](OC)/C=C\C=C(/C)C(=O)NC(=CC1=O)C2=O` [17-allylamino-17-demethoxy geldanamycin]: the “survival time of mice” value with multiple myeloma cells is on record as “extended survival time”.

Values taken from patent publication US20070004674A1, “Remedy for diseases associated with immunoglobulin gene translocation” (Kyowa Hakko Kogyo Co. Ltd., priority 2003, published 2007).
